In US6608082B1, “Treatment of erectile dysfunction using isoquinoline compound melanocortin receptor ligands” (Lion Bioscience AG, priority 1998, dated 2003):
Like-named read-outs stand apart in the source and are kept apart here.

Legend:
[1] = target: T1, MCR-4 (Homo sapiens, UniProt P32245); assay: Melanocortin receptor binding assay, competition with 125I-HP 467, HEK 293 cells expressing hMCR-4; details: for IC50: read-out: MC-4 IC50
T1 construct: expressed in transfected cells; host or cells: HEK 293
T1 sequence (P32245 whole entry): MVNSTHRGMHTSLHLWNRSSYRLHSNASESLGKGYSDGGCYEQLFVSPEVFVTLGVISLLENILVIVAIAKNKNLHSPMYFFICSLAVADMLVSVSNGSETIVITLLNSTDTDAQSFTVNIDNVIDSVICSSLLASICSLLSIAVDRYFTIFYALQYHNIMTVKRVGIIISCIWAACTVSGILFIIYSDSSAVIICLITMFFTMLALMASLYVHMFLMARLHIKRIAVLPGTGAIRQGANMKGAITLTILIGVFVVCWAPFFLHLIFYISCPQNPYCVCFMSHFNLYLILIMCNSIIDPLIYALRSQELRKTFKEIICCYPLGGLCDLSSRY
Description: All cell culture media and reagents were obtained from GibcoBRL (Gaithersburg Md.), except for COSMIC CALF SERUM (HyClone; Logan Utah).
Cells were suspended in PBS, 10% COSMIC CALF SERUM and 1 mM CaCl2. Cell suspensions were prepared at a density of 2×10^4 cells/ml for HEK 293 cells expressing hMCR-3, hMCR-4 or hMCR-5, and 1×10^5 cells/ml for HEK 293 cells expressing hMCR-1. Suspensions were placed in a water bath and allowed to warm to 37° C. for 1 hr.
Binding assays were performed in a total volume of 250 μl for HEK 293 cells. […] To each tube was added 4×10^3 HEK 293 cells expressing hMCR-3, hMCR-4 or hMCR-5, or 2×10^4 cells expressing hMCR-1. Assays were incubated for 2.5 hr at 37° C.
GF/B filter plates were prepared by soaking for at least one hour in 5 mg/ml BSA and 10 mM CaCl2. Assays were filtered using a Brandel 96-well cell harvester (Brandel Inc.; Gaithersburg, Md.). The filters were washed four times with cold 50 mM Tris, pH 7.4, the filter plates were dehydrated for 2 hr and 35 μl of MICROSCINT was added to each well. Filter plates were counted using a Packard Topcount (Packard Instrument Co.) and data analyzed using GraphPad PRISM v2.0 (GraphPad Software Inc.; San Diego Calif.) and Microsoft EXCEL v5.0a (Microsoft Corp.; Redmond Wash.).
To assay isoquinoline compounds, binding assays were performed in duplicate in a 96 well format. […] A 0.2 ml aliquot of suspended cells was added to each well to give the cell numbers indicate above, and the cells were incubated at 37° C. for 2.5 hr. Cells were harvested on GF/B filter plates as described above and counted.

[2] = target: T2, MCR-1 (Homo sapiens, UniProt Q01726); assay: Melanocortin receptor binding assay, competition with 125I-HP 467, HEK 293 cells expressing hMCR-1; details: for IC50: read-out: MC-1 IC50; for % Disp. MC-1 10 μM: displacement of 125I-HP 467 at 10 μM isoquinoline compound
T2 construct: expressed in transfected cells; host or cells: HEK 293
T2 sequence (Q01726 whole entry): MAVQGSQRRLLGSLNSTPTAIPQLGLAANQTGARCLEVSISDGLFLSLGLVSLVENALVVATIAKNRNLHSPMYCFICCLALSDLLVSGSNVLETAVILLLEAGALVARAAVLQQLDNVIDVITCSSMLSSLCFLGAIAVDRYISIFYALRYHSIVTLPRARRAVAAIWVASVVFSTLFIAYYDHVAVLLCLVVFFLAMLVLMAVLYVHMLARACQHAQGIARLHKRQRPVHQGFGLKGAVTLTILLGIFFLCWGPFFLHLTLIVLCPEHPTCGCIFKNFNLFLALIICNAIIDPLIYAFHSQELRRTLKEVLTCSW
Procedure, shortened: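 Test compounds compete on intact HEK 293 cells carrying hMCR-1 (2×10^4 per tube) or hMCR-4 (4×10^3 per tube), suspended in PBS, 10% calf serum, 1 mM CaCl2.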

[3] = TRG 2406 and TRG 2407 libraries, inhibition of binding of 125I-HP 467
[4] = inhibition of binding of 125I-HP 467, HEK 293 cells expressing MCR-1

| SMILES | IC50 [1, 3] | IC50 [2, 3] | IC50 [2, 4] | other results |
| --- | --- | --- | --- | --- |
| CCCOc1ccc(C2C(CNCc3ccccc3)c3ccccc3CN2CCCCC(CN)NCC(C)c2ccc(CC(C)C)cc2)cc1 (mixture of isomers) [Cmpd 192] |  |  |  | IC50 ([1]; TRG 2414 library, inhibition of binding of 125I-HP 467, HEK 293 cells expressing MCR-4): 16000 nM; IC50 ([2]; TRG 2414 library, inhibition of binding of 125I-HP 467, HEK 293 cells expressing MCR-1): 11400 nM |
| CNC(CN)CN1Cc2ccccc2C(CNC2CCCCC2)C1c1cccn1C (mixture of isomers) [TRG 2405-94] |  |  |  | IC50 ([1]; TRG 2405 section, inhibition of binding of 125I-HP 467, HEK 293 cells expressing MCR-4): 10500 nM; IC50 ([2]; TRG 2405 section, inhibition of binding of 125I-HP 467, HEK 293 cells expressing MCR-1): 2110 nM; % Disp. MC-1 10 μM ([2]; first of duplicate): 68.9%; % Disp. MC-1 10 μM ([2]; second of duplicate): 72% |
| CNC(CN)CCCCN1Cc2ccccc2C(CNCc2ccccc2O)C1c1cccc(Oc2ccc(Cl)c(Cl)c2)c1 (mixture of isomers) [TRG 2406-4] | 3780 nM | 1720 nM |  |  |
| NCCN1Cc2ccccc2C(CNCc2ccccc2O)C1c1ccc(Oc2ccccc2)cc1 (mixture of isomers) [TRG 2406-11] | 7000 nM | 10500 nM |  |  |
| CNC(CN)CCCCN1Cc2ccccc2C(CNc2ccccc2)C1c1ccc(Cl)cc1Cl (mixture of isomers) [TRG 2407-1] | 10600 nM | 5570 nM |  |  |
| CNC(CN)CCCCN1Cc2ccccc2C(CNCc2ccccc2OC)C1c1ccc(Cl)cc1Cl (mixture of isomers) [TRG 2407-14] | 410 nM | 370 nM |  |  |
| CNC(CN)CCCCN1Cc2ccccc2C(CNCCc2ccccc2Cl)C1c1ccc(Cl)cc1Cl (mixture of isomers) [TRG 2407-22] | 690 nM | 1340 nM |  |  |
| CNC(CN)CCCCN1Cc2ccccc2C(CNCCc2ccccc2OC)C1c1ccc(Cl)cc1Cl (mixture of isomers) [TRG 2407-23] | 690 nM | 940 nM |  |  |
| CNC(CN)CCCCN1Cc2ccccc2C(CNCCc2cccc(Cl)c2)C1c1ccc(Cl)cc1Cl (mixture of isomers) [TRG 2407-24] | 800 nM | 1790 nM |  |  |
| CNC(CN)CCCCN1Cc2ccccc2C(CNCC2CCCCC2)C1c1ccc(Cl)cc1Cl (mixture of isomers) [TRG 2407-31] | 1020 nM | 1110 nM |  |  |
| CNC(CN)CCCCN1Cc2ccccc2C(CNN2CCCCC2)C1c1ccc(Cl)cc1Cl (mixture of isomers) [TRG 2407-34] | 2010 nM | 3970 nM |  |  |
| CCNc1ccc(C2C(CNc3cccc(O)c3)c3ccccc3CN2CCCCC(CN)NC)cc1 (mixture of isomers) [TRG 2407-47] |  | 840 nM |  | MC-4 IC50 [1, 3]: no fit |
| NCC(CCCCN1Cc2ccccc2C(CNCc2ccccc2C(F)(F)F)C1c1ccc(Cl)cc1Cl)NCc1ccccc1 (mixture of isomers) [TRG 2414-3] |  |  |  | IC50 ([1]; inhibition of binding of 125I-HP 467, HEK 293 cells expressing MCR-4, TRG 2414 library): 65600 nM |
| CCCCCNc1ccc(C2C(CNCCc3ccccc3)c3ccccc3CN2CCCC(CN)NCc2ccccc2)cc1 (stereo not shown) [TRG 2412-18] |  |  | 190 nM |  |
| CCOc1ccc(C2C(CNCCc3ccccc3)c3ccccc3CN2CCCC(CN)NC)cc1 (stereo not shown) [TRG 2412-19] |  |  | 160 nM |  |

More lines, main results first:

| IC50 [1, 3] | IC50 [2, 3] | IC50 [2, 4] | SMILES | other results |
| --- | --- | --- | --- | --- |
|  |  | 570 nM | CCCOc1ccc(C2C(CNCCc3ccccc3)c3ccccc3CN2CCCCC(CN)NCc2ccccc2)cc1 (stereo not shown) [TRG 2412-9] |  |
|  |  | 310 nM | CCCCOc1ccc(C2C(CNCCc3ccccc3)c3ccccc3CN2CCCCC(CN)NC)cc1 (stereo not shown) [TRG 2412-10] |  |
|  |  | 820 nM | CCCCOc1ccc(C2C(CNCCc3ccccc3)c3ccccc3CN2CCCCC(CN)NCCc2ccccc2)cc1 (stereo not shown) [TRG 2412-11] |  |
|  |  | 540 nM | CCCCOc1ccc(C2C(CNCCc3ccccc3)c3ccccc3CN2CCCCC(CN)NCc2ccccc2)cc1 (stereo not shown) [TRG 2412-12] |  |
|  |  | 450 nM | CCCCCc1ccc(C2C(CNCCc3ccccc3)c3ccccc3CN2CCCCC(CN)NC)cc1 (stereo not shown) [TRG 2412-13] |  |
|  |  | 880 nM | CCCCCc1ccc(C2C(CNCCc3ccccc3)c3ccccc3CN2CCCCC(CN)NCCc2ccccc2)cc1 (stereo not shown) [TRG 2412-14] |  |
|  |  | 750 nM | CCCCCc1ccc(C2C(CNCCc3ccccc3)c3ccccc3CN2CCCCC(CN)NCc2ccccc2)cc1 (stereo not shown) [TRG 2412-15] |  |
|  |  | 150 nM | CCOc1ccc(C2C(CNCCc3ccccc3)c3ccccc3CN2CCCC(CN)NCCc2ccccc2)cc1 (stereo not shown) [TRG 2412-20] |  |
|  |  | 200 nM | CCCOc1ccc(C2C(CNCCc3ccccc3)c3ccccc3CN2CCCC(CN)NC)cc1 (stereo not shown) [TRG 2412-22] |  |
|  |  | 350 nM | CCCOc1ccc(C2C(CNCCc3ccccc3)c3ccccc3CN2CCCC(CN)NCCc2ccccc2)cc1 (stereo not shown) [TRG 2412-23] |  |
|  |  | 410 nM | CCCOc1ccc(C2C(CNCCc3ccccc3)c3ccccc3CN2CCCC(CN)NCc2ccccc2)cc1 (stereo not shown) [TRG 2412-24] |  |
